# Data: article doi:10.1101/2025.10.23.684218v2, “Development of a dual chemical probe for the USP16 and HDAC6 zinc-finger ubiquitin-binding domain” (biorxiv, 2025)
# Read-outs that look alike come from different tables or passages of the source.
# Key:
# [1] = molecular target: USP16-UBD (USP16 8-185) (Homo sapiens, UniProt Q9Y5T5); test: ITC; format: binding
# [2] = molecular target: T1, USP16-UBD (USP16 25-185) (Homo sapiens, UniProt Q9Y5T5); test: SPR, steady state; format: binding
# [3] = molecular target: T2, NanoLuc-tagged HDAC6 (Homo sapiens, UniProt Q9UBN7); test: NanoBRET displacement of HaloTag-ISG15; format: cell-based
# T2 construct: N-terminal NanoLuc fusion in HEK293T
# T2 sequence (Q9UBN7 1-1215): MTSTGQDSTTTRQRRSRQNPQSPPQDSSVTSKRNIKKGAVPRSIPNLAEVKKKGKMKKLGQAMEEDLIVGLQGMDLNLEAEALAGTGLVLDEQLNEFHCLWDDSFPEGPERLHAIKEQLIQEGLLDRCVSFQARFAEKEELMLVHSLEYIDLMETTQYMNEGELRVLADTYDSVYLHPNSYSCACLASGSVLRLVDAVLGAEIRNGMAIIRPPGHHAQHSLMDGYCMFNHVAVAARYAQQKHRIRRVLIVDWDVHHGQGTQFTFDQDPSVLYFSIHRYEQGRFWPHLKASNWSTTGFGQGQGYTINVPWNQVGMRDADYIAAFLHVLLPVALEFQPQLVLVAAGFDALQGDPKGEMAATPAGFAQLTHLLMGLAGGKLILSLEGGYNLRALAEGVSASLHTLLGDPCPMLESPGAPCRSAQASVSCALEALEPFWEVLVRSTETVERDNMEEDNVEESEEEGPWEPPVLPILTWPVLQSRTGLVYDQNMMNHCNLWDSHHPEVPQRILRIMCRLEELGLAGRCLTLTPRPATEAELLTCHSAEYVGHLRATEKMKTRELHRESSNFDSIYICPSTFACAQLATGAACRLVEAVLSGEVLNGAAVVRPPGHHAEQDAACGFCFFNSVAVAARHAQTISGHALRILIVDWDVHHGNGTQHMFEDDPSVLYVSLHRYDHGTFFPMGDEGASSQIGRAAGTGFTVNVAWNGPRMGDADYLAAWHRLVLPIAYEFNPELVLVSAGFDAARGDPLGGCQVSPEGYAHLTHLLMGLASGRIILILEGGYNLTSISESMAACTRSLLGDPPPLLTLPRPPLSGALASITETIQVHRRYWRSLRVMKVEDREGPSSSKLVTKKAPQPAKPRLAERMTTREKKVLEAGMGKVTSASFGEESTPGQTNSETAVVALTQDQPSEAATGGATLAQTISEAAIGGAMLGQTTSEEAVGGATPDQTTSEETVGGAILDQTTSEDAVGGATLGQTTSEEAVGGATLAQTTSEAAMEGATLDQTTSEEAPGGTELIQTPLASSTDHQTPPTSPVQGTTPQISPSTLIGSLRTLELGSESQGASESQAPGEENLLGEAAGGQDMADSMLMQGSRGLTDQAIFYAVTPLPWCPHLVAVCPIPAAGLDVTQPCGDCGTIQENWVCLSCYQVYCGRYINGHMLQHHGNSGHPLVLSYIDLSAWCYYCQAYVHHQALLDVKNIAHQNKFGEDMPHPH
# [4] = molecular target: T3, USP13 (Homo sapiens, UniProt Q92995); test: biochemical; parameters: SPR, steady-state binding to immobilised biotinylated UBD proteins
# T3 construct: UBD, residues 183-307
# T3 sequence (Q92995 1-863): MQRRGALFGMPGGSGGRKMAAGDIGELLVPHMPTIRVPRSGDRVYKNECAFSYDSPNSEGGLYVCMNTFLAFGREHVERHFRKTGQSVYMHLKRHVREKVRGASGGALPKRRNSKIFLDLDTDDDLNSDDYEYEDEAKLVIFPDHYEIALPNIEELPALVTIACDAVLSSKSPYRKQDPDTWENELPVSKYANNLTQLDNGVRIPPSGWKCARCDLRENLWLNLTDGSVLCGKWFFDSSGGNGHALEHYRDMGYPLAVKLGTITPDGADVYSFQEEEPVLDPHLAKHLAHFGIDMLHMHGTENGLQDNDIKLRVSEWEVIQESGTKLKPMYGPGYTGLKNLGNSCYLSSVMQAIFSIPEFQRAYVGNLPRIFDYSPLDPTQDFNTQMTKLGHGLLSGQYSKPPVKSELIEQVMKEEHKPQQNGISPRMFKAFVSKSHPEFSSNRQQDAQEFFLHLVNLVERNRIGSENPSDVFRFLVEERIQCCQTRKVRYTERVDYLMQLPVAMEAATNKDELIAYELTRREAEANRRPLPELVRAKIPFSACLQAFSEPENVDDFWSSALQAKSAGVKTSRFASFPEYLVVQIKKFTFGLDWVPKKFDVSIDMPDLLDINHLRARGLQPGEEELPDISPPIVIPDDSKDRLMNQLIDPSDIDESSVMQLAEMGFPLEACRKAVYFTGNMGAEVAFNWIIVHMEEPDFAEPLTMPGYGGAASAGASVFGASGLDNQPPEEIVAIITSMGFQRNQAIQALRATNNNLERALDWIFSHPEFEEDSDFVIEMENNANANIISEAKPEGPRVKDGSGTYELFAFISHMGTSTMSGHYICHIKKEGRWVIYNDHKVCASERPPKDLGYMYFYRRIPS
# [5] = molecular target: T2, NanoLuc-tagged HDAC6; test: NanoBRET displacement of HaloTag-ISG15; format: cell-based; details: HEK293T cells, […]
# [6] = molecular target: T4, NanoLuc-tagged USP16 (Homo sapiens, UniProt Q9Y5T5); test: NanoBRET displacement of HaloTag-ISG15; format: cell-based; details: HEK293T cells, […]
# T4 construct: N-terminal NanoLuc fusion in HEK293T
# T4 sequence (Q9Y5T5 whole entry, the tested form may be a part): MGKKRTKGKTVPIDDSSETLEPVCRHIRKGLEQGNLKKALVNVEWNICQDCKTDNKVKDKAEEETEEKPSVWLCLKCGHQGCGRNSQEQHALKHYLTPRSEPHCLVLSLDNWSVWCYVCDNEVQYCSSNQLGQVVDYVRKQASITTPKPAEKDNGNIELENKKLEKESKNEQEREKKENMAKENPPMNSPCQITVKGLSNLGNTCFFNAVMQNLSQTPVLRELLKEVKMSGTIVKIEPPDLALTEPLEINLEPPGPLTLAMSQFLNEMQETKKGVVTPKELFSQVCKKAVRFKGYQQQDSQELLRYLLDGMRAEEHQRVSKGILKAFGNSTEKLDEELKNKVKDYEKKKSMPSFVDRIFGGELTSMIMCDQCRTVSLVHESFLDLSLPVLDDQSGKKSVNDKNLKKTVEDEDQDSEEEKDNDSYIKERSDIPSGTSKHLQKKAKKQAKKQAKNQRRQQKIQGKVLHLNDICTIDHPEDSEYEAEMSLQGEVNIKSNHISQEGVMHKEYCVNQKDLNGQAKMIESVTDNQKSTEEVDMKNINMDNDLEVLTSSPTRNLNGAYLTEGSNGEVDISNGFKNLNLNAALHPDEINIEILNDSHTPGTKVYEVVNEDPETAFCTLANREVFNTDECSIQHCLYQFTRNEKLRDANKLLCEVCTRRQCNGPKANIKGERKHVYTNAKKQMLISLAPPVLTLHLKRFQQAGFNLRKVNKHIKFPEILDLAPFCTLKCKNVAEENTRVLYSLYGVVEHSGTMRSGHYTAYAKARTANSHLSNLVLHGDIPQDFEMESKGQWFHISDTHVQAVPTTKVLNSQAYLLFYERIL
# [7] = molecular target: T1, USP16-UBD (USP16 25-185); test: biochemical; parameters: SPR, steady-state binding to immobilised biotinylated UBD proteins; details: read-out: Negative Control KD (nM) SGC-UBD1031N
# [8] = molecular target: T5, USP16-FL (USP16 1-823) (Homo sapiens, UniProt Q9Y5T5); test: ubiquitin-rhodamine110 DUB assay; format: biochemical; details: […] ubiquitin-rhodamine-[…] enzyme, pH […], up to […] compound
# T5 construct: full length 1-823, pFBOH-LIC, Sf9 baculovirus, Ni-NTA and MonoQ
# T5 sequence (Q9Y5T5 whole entry): as the sequence (Q9Y5T5 whole entry, the tested form may be a part) above
# T1 sequence (Q9Y5T5 25-185): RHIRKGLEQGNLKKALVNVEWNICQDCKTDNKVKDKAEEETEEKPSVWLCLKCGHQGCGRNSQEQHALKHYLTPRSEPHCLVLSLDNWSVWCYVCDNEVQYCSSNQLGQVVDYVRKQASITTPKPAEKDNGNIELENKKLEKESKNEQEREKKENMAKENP
# Sequence of USP16-UBD (USP16 8-185) (Q9Y5T5 8-185): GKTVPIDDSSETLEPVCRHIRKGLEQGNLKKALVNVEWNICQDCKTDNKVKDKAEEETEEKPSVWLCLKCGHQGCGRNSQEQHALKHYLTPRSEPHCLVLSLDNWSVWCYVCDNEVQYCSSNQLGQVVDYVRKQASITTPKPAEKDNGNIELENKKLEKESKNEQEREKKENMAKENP
Structure (SMILES),Kd [1],Kd [2],IC50 [3],Kd ([4]; read-out: Probe KD (nM) SGC-UBD1031),NanoBRET displacement of HaloTag-ISG15 [5],NanoBRET displacement of HaloTag-ISG15 [6],Kd [7],Kd ([4]; read-out: Negative Control KD (nM) SGC-UBD1031N),ubiquitin-rhodamine110 DUB assay [8]
"C[C@H](NC(=O)Cn1c(CCC(=O)O)nc2c(Cl)cccc2c1=O)c1c(F)cccc1F [compound 15, (S)-3-(8-chloro-3-(2-((1-(2,6-difluorophenyl)ethyl)amino)-2-oxoethyl)-4-oxo-3,4-dihydroquinazolin-2-yl)propanoic acid]",0.05 µM,0.048 µM,1.5 ± 0.2 µM,> 10000 nM,,,,,
"C[C@@H](NC(=O)Cn1c(CCC(=O)O)nc2c(Cl)cccc2c1=O)c1c(F)cccc1F [compound 16, (R)-3-(8-chloro-3-(2-((1-(2,6-difluorophenyl)ethyl)amino)-2-oxoethyl)-4-oxo-3,4-dihydroquinazolin-2-yl)propanoic acid]",,,,,SGC-UBD1031N did not inhibit the interaction of HDAC6 or USP16 and ISG15,SGC-UBD1031N did not inhibit the interaction of HDAC6 or USP16 and ISG15,1770 ± 300 nM,> 10000 nM,the negative control shows no inhibition of DUB activity
